How the values were obtained:
Experiment in all cases: In vitro antifungal activity, microbroth dilution MIC
Type in all cases: cell-based
[1] = test system: Candida pseudotropicalis K. 11658; details: 4 to 48 hours; for Minimal inhibitory concentration(MIC), C. pseudotropicalis K. 11658: RPMI-1640, 35° C., no growth observed
Protocol: (§1) In vitro antifungal activities of the inventive antifungal compounds were evaluated using the test strains shown in Table VIII by the following microbroth dilution method which is a modified version of the procedure recommended by National Committee for Clinical Laboratory Standards(see National Committee for Clinical Laboratory Standards, 1992, Reference methods for broth dilution antifungal susceptibility testing of yeasts, Proposed standard M27-P, National Committee for clinical laboratory standards, Villanova, Pa; and National Committee for Clinical Laboratory Standards, 1995, Reference methods for broth dilution antifungal susceptibility testing of yeasts. Tentative standard M27-T, National Committee for clinical laboratory standards, Villanova, Pa).
(§2) Sabourad Dextrose Agar(Difco) was used as a culture medium, and RPMI-1640 broth(Sigma. Co. w/L-glutamine, wo/NaHCO3)(0.165 M MOPS, pH 7.0), as a dilution medium.
(§3) Each of the test strains were subcultured in Sabourad Dextrose Agar medium twice and a stain sample was taken from prominent colonies and suspended in sterile physiological saline solution in a cap tube. The turbidity of the suspension was adjusted to that of the Mcfarland 0.5 standard sample(approximately 10^6 CFU/ml). Then the suspension was diluted 500-fold with sterile RPMI-1640 liquid medium to 2×10^3 CFU/ml.
(§4) Each of the test compounds(the compounds obtained in Examples 1 to 150 and comparative compounds, i.e., fluconazole(FCZ) and itraconazole (ICZ)), was dissolved in DMSO to give a stock solution having a concentration of 4000 μg/ml and the stock solution was successively diluted to obtain test solutions having test compound concentrations of 200, 100, 50, 25, 12.5, 6.25, 3.13, 1.56, 0.78, 0.39, 0.20 and 0.10 μg/ml, respectively.
(§5) 0.1 ml portion of the test solutions were added to the wells of a sterile 96 well plate. Then, 0.1 ml portion of each of the test strain solutions were added successively to the wells and the plate was incubated at 35° C. for 4 to 48 hours.
(§6) Minimal inhibitory concentration(MIC) of each compound was defined as the concentration of the test compound where no growth of the strain could be observed.

Candida albicans C1-2 = details: 4 to 48 hours; for Minimal inhibitory concentration (MIC): C. albicans C1-2, RPMI-1640, 35° C.; for Minimal inhibitory concentration(MIC), C. albicans C1-2: RPMI-1640, 35° C., no growth observed
Protocol: as §1, §2, §3, §4, §5, §6

[2] = test system: Candida albicans A. 10231; details: 4 to 48 hours; for Minimal inhibitory concentration (MIC): C. albicans A. 10231, RPMI-1640, 35° C.; for Minimal inhibitory concentration(MIC), C. albicans A. 10231: RPMI-1640, 35° C., no growth observed
Protocol: as §1, §2, §3, §4, §5, §6

[3] = test system: Cryptococcus neoformans IFM. 40092; details: for Minimal inhibitory concentration(MIC), Cry. neoformans IFM. 40092: RPMI-1640, 35° C., no growth observed
Protocol: as §1, §2, §3, §4, §5, §6

[4] = test system: Candida tropicalis A. 13803; details: 4 to 48 hours; for Minimal inhibitory concentration(MIC), C. tropicalis A. 13803: RPMI-1640, 35° C., no growth observed
Protocol: as §1, §2, §3, §4, §5, §6

[5] = test system: Aspergillus furnigatus B. 19119; details: for Minimal inhibitory concentration(MIC), A furnigatus B. 19119: RPMI-1640, 35° C., no growth observed
Protocol: as §1, §2, §3, §4, §5, §6

[6] = test system: Trichophyton mentagrophytes A. 9129; details: for Minimal inhibitory concentration(MIC), T. mentagrophytes A. 9129: RPMI-1640, 35° C., no growth observed
Protocol: as §1, §2, §3, §4, §5, §6

[7] = test system: Cryptococcus neoformans A. 34144; details: for Minimal inhibitory concentration(MIC), Cry. neoformans A. 34144: RPMI-1640, 35° C., no growth observed
Protocol: as §1, §2, §3, §4, §5, §6

Candida krusei K. 11655 = details: 4 to 48 hours; for Minimal inhibitory concentration(MIC), C. krusei K. 11655: RPMI-1640, 35° C., no growth observed
Protocol: as §1, §2, §3, §4, §5, §6

[8] = test system: Trichophyton mentagrophytes B. 32663; details: for Minimal inhibitory concentration(MIC), T. mentagrophytes B. 32663: RPMI-1640, 35° C., no growth observed
Protocol: as §1, §2, §3, §4, §5, §6

[9] = test system: Aspergillus niger A. 16404; details: for Minimal inhibitory concentration(MIC), A. niger A. 16404: RPMI-1640, 35° C., no growth observed
Protocol: as §1, §2, §3, §4, §5, §6

[10] = test system: Torulopsis glabrata B. 16205; details: 4 to 48 hours; for Minimal inhibitory concentration(MIC), T. glabrata B. 16205: RPMI-1640, 35° C., no growth observed
Protocol: as §1, §2, §3, §4, §5, §6

[11] = test system: Candida albicans IFO. 1385; details: 4 to 48 hours; for Minimal inhibitory concentration(MIC), C. albicans IFO. 1385: RPMI-1640, 35° C., no growth observed
Protocol: as §1, §2, §3, §4, §5, §6

[12] = test system: Candida parapsitosis A. 7330; details: 4 to 48 hours; for Minimal inhibitory concentration(MIC), C. parapsitosis A. 7330: RPMI-1640, 35° C., no growth observed
Protocol: as §1, §2, §3, §4, §5, §6

[13] = test system: Cryptococcus neoformans B. 42419; details: 4 to 48 hours; for Minimal inhibitory concentration(MIC), Cry. neoformans B. 42419: RPMI-1640, 35° C., no growth observed
Protocol: as §1, §2, §3, §4, §5, §6

Row | Minimal inhibitory concentration(MIC), C. pseudotropicalis K. 11658 [1] [µg/mL] | Minimal inhibitory concentration (MIC) (Candida albicans C1-2) [µg/mL] | Minimal inhibitory concentration (MIC) [2] [µg/mL] | Minimal inhibitory concentration(MIC), Cry. neoformans IFM. 40092 ([3]; 4 to 48 hours) [µg/mL] | Minimal inhibitory concentration(MIC), C. tropicalis A. 13803 [4] [µg/mL] | Minimal inhibitory concentration(MIC), A furnigatus B. 19119 ([5]; 4 to 48 hours) [µg/mL] | Minimal inhibitory concentration(MIC), T. mentagrophytes A. 9129 ([6]; 4 to 48 hours) [µg/mL] | Minimal inhibitory concentration(MIC), Cry. neoformans A. 34144 ([7]; 4 to 48 hours) [µg/mL] | Minimal inhibitory concentration(MIC), C. krusei K. 11655 (Candida krusei K. 11655) [µg/mL] | Minimal inhibitory concentration(MIC), T. mentagrophytes B. 32663 ([8]; 4 to 48 hours) [µg/mL] | Minimal inhibitory concentration(MIC), A. niger A. 16404 ([9]; 4 to 48 hours) [µg/mL] | Minimal inhibitory concentration(MIC), T. glabrata B. 16205 [10] [µg/mL] | Minimal inhibitory concentration(MIC), C. albicans IFO. 1385 [11] [µg/mL] | Minimal inhibitory concentration(MIC), C. parapsitosis A. 7330 [12] [µg/mL] | Minimal inhibitory concentration(MIC), Cry. neoformans B. 42419 [13] [µg/mL] | Minimal inhibitory concentration(MIC), C. albicans C1-2 (Candida albicans C1-2) [µg/mL] | Minimal inhibitory concentration(MIC), C. albicans A. 10231 [2] [µg/mL] | Structure (SMILES) | also measured
1 | 6.25 | 100 | 100 | 0.78 | 100 | 100 | 6.25 | 3.13 | 12.5 | 6.25 | >100 | 50.0 | 25.0 | 12.5 | 1.56 |  |  | FC(=Cc1ccc(F)cc1)OCC1COC(Cn2cncn2)(c2ccc(Cl)cc2Cl)O1 (mixture of isomers) [Ex. 77] | 
2 |  | 25.0 | 25.0 |  |  |  |  |  |  |  |  |  |  |  |  |  |  | FC(OCC1COC(Cn2ccnc2)(c2ccc(Cl)cc2Cl)O1)=C(c1cccs1)C(F)(F)F (mixture of isomers) [Ex. 35] | Minimal inhibitory concentration (MIC) ([1]; C. pseudotropicalis K. 11658, RPMI-1640, 35° C.): >100 µg/mL; Minimal inhibitory concentration (MIC) ([3]; Cry. neoformans IFM. 40092, RPMI-1640, 35° C., 4 to 48 hours): 0.78 µg/mL; Minimal inhibitory concentration (MIC) ([4]; C. tropicalis A. 13803, RPMI-1640, 35° C.): 100 µg/mL; Minimal inhibitory concentration (MIC) ([5]; A furnigatus B. 19119, RPMI-1640, 35° C., 4 to 48 hours): 100 µg/mL; Minimal inhibitory concentration (MIC) ([6]; T. mentagrophytes A. 9129, RPMI-1640, 35° C., 4 to 48 hours): 25.0 µg/mL; Minimal inhibitory concentration (MIC) ([7]; Cry. neoformans A. 34144, RPMI-1640, 35° C., 4 to 48 hours): 1.56 µg/mL; Minimal inhibitory concentration (MIC) (Candida krusei K. 11655; C. krusei K. 11655, RPMI-1640, 35° C.): >100 µg/mL; Minimal inhibitory concentration (MIC) ([8]; T. mentagrophytes B. 32663, RPMI-1640, 35° C., 4 to 48 hours): 6.25 µg/mL; Minimal inhibitory concentration (MIC) ([9]; A. niger A. 16404, RPMI-1640, 35° C., 4 to 48 hours): 100 µg/mL; Minimal inhibitory concentration (MIC) ([10]; T. glabrata B. 16205, RPMI-1640, 35° C.): 25.0 µg/mL; Minimal inhibitory concentration (MIC) ([11]; C. albicans IFO. 1385, RPMI-1640, 35° C.): 1.56 µg/mL; Minimal inhibitory concentration (MIC) ([12]; C. parapsitosis A. 7330, RPMI-1640, 35° C.): >100 µg/mL; Minimal inhibitory concentration (MIC) ([13]; Cry. neoformans B. 42419, RPMI-1640, 35° C.): 1.56 µg/mL
3 | 0.39 |  |  |  | >100 |  |  |  | 0.78 |  |  | 100 | 0.78 | 1.56 | 0.78 | >100 | >100 | FC(=C(c1ccc(Oc2ccccc2)cc1)C(F)(F)F)N1CCN(c2ccc(OCC3COC(Cn4ccnc4)(c4ccc(F)cc4F)O3)cc2)CC1 (mixture of isomers) [Ex. 146] | Minimal inhibitory concentration(MIC), Cry. neoformans IFM. 40092 [3]: 0.78 µg/mL; Minimal inhibitory concentration(MIC), A furnigatus B. 19119 [5]: 100 µg/mL; Minimal inhibitory concentration(MIC), T. mentagrophytes A. 9129 [6]: 12.5 µg/mL; Minimal inhibitory concentration(MIC), Cry. neoformans A. 34144 [7]: 1.56 µg/mL; Minimal inhibitory concentration(MIC), T. mentagrophytes B. 32663 [8]: 1.56 µg/mL; Minimal inhibitory concentration(MIC), A. niger A. 16404 [9]: 100 µg/mL
4 | >100 |  |  | 0.78 | >100 | >100 | 25.0 | 3.13 | >100 | 12.5 | >100 | 50.0 | 3.13 | >100 | 3.13 | 50.0 | 25.0 | FC(=Cc1ccc(F)cc1)Oc1ccc(OCC2COC(Cn3ccnc3)(c3ccc(Cl)cc3Cl)O2)cc1 (mixture of isomers) [Ex. 92] | 

Source: patent publication US6376497B1, “Antifungal azole derivatives having a fluorinated vinyl group and process for preparing same” (Korea Research Institute of Chemical Technology, priority 1999, dated 2002)
